Results: ChEMBL document CHEMBL3885881, “DrugMatrix”

Species on record: Rattus norvegicus
Assay: DrugMatrix - Regimen: Daily Repeat
Assay type: toxicity, organism-based, Sprague-Dawley
Set-up: regimen Daily Repeat, gender Male, age 6-8 weeks
Settings: in vivo, po, route oral GAVAGE, […]; for ABSOLUTE BASOPHIL / ABSOLUTE EOSINOPHIL / ABSOLUTE LYMPHOCYTE / ABSOLUTE MONOCYTE / ABSOLUTE SEGMENTED NEUTROPHIL / BASOPHIL / EOSINOPHIL / ERYTHROCYTE COUNT / HEMATOCRIT / HEMOGLOBIN / LEUKOCYTE COUNT / LYMPHOCYTE / MEAN CORPUSCULAR HEMOGLOBIN / MEAN CORPUSCULAR HEMOGLOBIN CONCENTRATION / MEAN CORPUSCULAR VOLUME / MONOCYTE / NEUTROPHIL / NUCLEATED RED BLOOD CELLS / PLATELET COUNT: tissue Blood; for ALANINE AMINOTRANSFERASE / ALBUMIN / ALKALINE PHOSPHATASE / ASPARTATE AMINOTRANSFERASE / BLOOD UREA NITROGEN / CARBON DIOXIDE / CHLORIDE / CHOLESTEROL / CREATINE PHOSPHOKINASE / CREATININE / GLUCOSE / LACTATE DEHYDROGENASE / LIPASE / PHOSPHORUS / POTASSIUM / SODIUM / TOTAL BILIRUBIN / TOTAL PROTEIN / URIC ACID: tissue Plasma
[1] = 0 mg/kg, 72 h, dose level Control, time 3 day
[2] = 0 mg/kg, 120 h, dose level Control, time 5 day
[3] = 6 mg/kg, 72 h, dose level Low, time 3 day

CO[C@H]1O[C@@H]2O[C@@]3(C)CC[C@H]4[C@H](C)CC[C@@H]([C@H]1C)[C@@]24OO3
ABSOLUTE BASOPHIL [1]: 0 CELLS/uL
ABSOLUTE EOSINOPHIL [1]: 138.5 CELLS/uL
ABSOLUTE LYMPHOCYTE [1]: 13978.67 CELLS/uL
ABSOLUTE MONOCYTE [1]: 391 CELLS/uL
ABSOLUTE SEGMENTED NEUTROPHIL [1]: 1608.5 CELLS/uL
BASOPHIL [1]: 0%
EOSINOPHIL [1]: 1%
ERYTHROCYTE COUNT [1]: 5.8 x10E6/uL
HEMATOCRIT [1]: 36.22%
HEMOGLOBIN [1]: 13.65 G/DL
LEUKOCYTE COUNT [1]: 16.12 x10E3/uL
LYMPHOCYTE [1]: 86.67%
MEAN CORPUSCULAR HEMOGLOBIN [1]: 23.58 pg
MEAN CORPUSCULAR HEMOGLOBIN CONCENTRATION [1]: 37.72 G/DL
MEAN CORPUSCULAR VOLUME [1]: 62.52 fL
MONOCYTE [1]: 2.5%
NEUTROPHIL [1]: 9.83%
NUCLEATED RED BLOOD CELLS [1]: 0 /100WBC
PLATELET COUNT [1]: 1214.17 x10E3/uL
ALANINE AMINOTRANSFERASE [1]: 59.5 u/L
ALBUMIN [1]: 4.1 G/DL
ALKALINE PHOSPHATASE [1]: 393.83 u/L
ASPARTATE AMINOTRANSFERASE [1]: 87.83 u/L
BLOOD UREA NITROGEN [1]: 16.33 mg/dL
CARBON DIOXIDE [1]: 28.17 mmol/L
CHLORIDE [1]: 100.83 MEQ/L
CHOLESTEROL [1]: 73.33 mg/dL
CREATINE PHOSPHOKINASE [1]: 398 u/L
CREATININE [1]: 0.2 mg/dL
GLUCOSE [1]: 152.67 mg/dL
LACTATE DEHYDROGENASE [1]: 501.5 u/L
LIPASE [1]: 9.5 u/L
PHOSPHORUS [1]: 10.77 mg/dL
POTASSIUM [1]: 6.44 MEQ/L
SODIUM [1]: 143.4 MEQ/L
TOTAL BILIRUBIN [1]: 0.17 mg/dL
TOTAL PROTEIN [1]: 5.92 G/DL
URIC ACID [1]: 1.68 mg/dL
ABSOLUTE BASOPHIL [2]: 0 CELLS/uL
ABSOLUTE EOSINOPHIL [2]: 183.33 CELLS/uL
ABSOLUTE LYMPHOCYTE [2]: 14952.83 CELLS/uL
ABSOLUTE MONOCYTE [2]: 238.5 CELLS/uL
ABSOLUTE SEGMENTED NEUTROPHIL [2]: 1642 CELLS/uL
BASOPHIL [2]: 0%
EOSINOPHIL [2]: 1%
ERYTHROCYTE COUNT [2]: 5.89 x10E6/uL
HEMATOCRIT [2]: 36.13%
HEMOGLOBIN [2]: 13.37 G/DL
LEUKOCYTE COUNT [2]: 17.02 x10E3/uL
LYMPHOCYTE [2]: 87.17%
MEAN CORPUSCULAR HEMOGLOBIN [2]: 22.73 pg
MEAN CORPUSCULAR HEMOGLOBIN CONCENTRATION [2]: 37.02 G/DL
MEAN CORPUSCULAR VOLUME [2]: 61.45 fL
MONOCYTE [2]: 1.5%
NEUTROPHIL [2]: 10.33%
NUCLEATED RED BLOOD CELLS [2]: 0 /100WBC
PLATELET COUNT [2]: 1183.5 x10E3/uL
ALANINE AMINOTRANSFERASE [2]: 54.83 u/L
ALBUMIN [2]: 4.28 G/DL
ALKALINE PHOSPHATASE [2]: 363.17 u/L
ASPARTATE AMINOTRANSFERASE [2]: 96.83 u/L
BLOOD UREA NITROGEN [2]: 15.67 mg/dL
CARBON DIOXIDE [2]: 26.17 mmol/L
CHLORIDE [2]: 102.67 MEQ/L
CHOLESTEROL [2]: 63.67 mg/dL
CREATINE PHOSPHOKINASE [2]: 594.33 u/L
CREATININE [2]: 0.2 mg/dL
GLUCOSE [2]: 182.33 mg/dL
LACTATE DEHYDROGENASE [2]: 656.5 u/L
LIPASE [2]: 9.33 u/L
PHOSPHORUS [2]: 11.7 mg/dL
POTASSIUM [2]: 5.92 MEQ/L
SODIUM [2]: 142.62 MEQ/L
TOTAL BILIRUBIN [2]: 0.13 mg/dL
TOTAL PROTEIN [2]: 5.85 G/DL
URIC ACID [2]: 1.8 mg/dL
ABSOLUTE BASOPHIL [3]: 0 CELLS/uL
ABSOLUTE EOSINOPHIL [3]: 0 CELLS/uL
ABSOLUTE LYMPHOCYTE [3]: 14690 CELLS/uL
ABSOLUTE MONOCYTE [3]: 490.33 CELLS/uL
ABSOLUTE SEGMENTED NEUTROPHIL [3]: 1319.67 CELLS/uL
BASOPHIL [3]: 0%
EOSINOPHIL [3]: 0%
ERYTHROCYTE COUNT [3]: 5.7 x10E6/uL
HEMATOCRIT [3]: 36.23%
HEMOGLOBIN [3]: 13.63 G/DL
LEUKOCYTE COUNT [3]: 16.5 x10E3/uL
LYMPHOCYTE [3]: 88.67%
MEAN CORPUSCULAR HEMOGLOBIN [3]: 23.93 pg
MEAN CORPUSCULAR HEMOGLOBIN CONCENTRATION [3]: 37.67 G/DL
MEAN CORPUSCULAR VOLUME [3]: 63.6 fL
MONOCYTE [3]: 3%
NEUTROPHIL [3]: 8.33%
NUCLEATED RED BLOOD CELLS [3]: 0 /100WBC
PLATELET COUNT [3]: 1120 x10E3/uL
ALANINE AMINOTRANSFERASE [3]: 66.67 u/L
ALBUMIN [3]: 4.17 G/DL
ALKALINE PHOSPHATASE [3]: 405.67 u/L
ASPARTATE AMINOTRANSFERASE [3]: 88.33 u/L
BLOOD UREA NITROGEN [3]: 16.33 mg/dL
CARBON DIOXIDE [3]: 25.67 mmol/L
CHLORIDE [3]: 103 MEQ/L
CHOLESTEROL [3]: 70.33 mg/dL
CREATINE PHOSPHOKINASE [3]: 249.33 u/L
CREATININE [3]: 0.21 mg/dL
GLUCOSE [3]: 155.33 mg/dL
LACTATE DEHYDROGENASE [3]: 155 u/L
LIPASE [3]: 9.33 u/L
PHOSPHORUS [3]: 11.6 mg/dL
POTASSIUM [3]: 6.23 MEQ/L
SODIUM [3]: 145.23 MEQ/L
TOTAL BILIRUBIN [3]: 0.2 mg/dL
TOTAL PROTEIN [3]: 5.8 G/DL
URIC ACID [3]: 1.47 mg/dL
